Results taken from publication PMC5209882, “The Coptotermes gestroi aldo–keto reductase: a multipurpose enzyme for biorefinery applications” (Biotechnology for Biofuels, 2017).

What was measured:
CgAKR-1 [1] = target: T1, CgAKR-1 (Coptotermes gestroi, UniProt A0A140CVV2); experiment: NADPH oxidation at […] nm, varied NADPH; type: biochemical; settings: 5 mM 2-nitrobenzaldehyde; 50 mM sodium phosphate pH 7.0 (standard assay), 30 °C; Kd apparently from kinetics
T1 construct: full-length ORF of 334 residues, N-terminal 6xHis tag (pET-28a, NheI/BamHI), E. coli ArcticExpress (DE3); Ni and size exclusion purified
T1 sequence (A0A140CVV2 1-334): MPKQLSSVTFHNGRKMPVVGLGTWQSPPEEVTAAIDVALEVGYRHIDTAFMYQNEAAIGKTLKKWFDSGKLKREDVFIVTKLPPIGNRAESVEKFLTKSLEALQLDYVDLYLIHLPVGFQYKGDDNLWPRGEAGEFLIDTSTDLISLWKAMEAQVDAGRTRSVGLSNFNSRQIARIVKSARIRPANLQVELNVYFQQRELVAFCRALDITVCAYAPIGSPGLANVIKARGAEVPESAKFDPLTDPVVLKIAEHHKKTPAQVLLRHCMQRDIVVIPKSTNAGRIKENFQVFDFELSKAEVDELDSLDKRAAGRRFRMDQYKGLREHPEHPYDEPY

CgAKR-1 [2] = target: T1, CgAKR-1; experiment: X-ray crystal structure; settings: cofactor-binding site; complex described in text, ligand state not stated explicitly
purified protein = substrate: O=Cc1ccccc1[N+](=O)[O-]; experiment: purified protein; type: biochemical, Coptotermes gestroi; settings: 0.2 mM NADPH, 50 mM sodium phosphate pH 7.0 (standard assay), 30 °C

In the case of `NC(=O)C1=CN([C@@H]2O[C@H](COP(=O)(O)OP(=O)(O)OC[C@H]3O[C@@H](n4cnc5c(N)ncnc54)[C@H](OP(=O)(O)O)[C@@H]3O)[C@@H](O)[C@H]2O)C=CC1` [NADPH], the Kd (CgAKR-1 [1]) is reported as 60 µM.

With `NC(=O)c1ccc[n+]([C@@H]2O[C@H](COP(=O)(O)OP(=O)(O)OC[C@H]3O[C@@H](n4cnc5c(N)ncnc54)[C@H](OP(=O)(O)O)[C@@H]3O)[C@@H](O)[C@H]2O)c1` [NADP] the X-ray crystal structure (CgAKR-1 [2]) was “the pocket was mainly delimited by the cofactor (NADP) and nine amino acids”.

B1: CgAKR-1 (Coptotermes gestroi) (protein)
chain: MPKQLSSVTFHNGRKMPVVGLGTWQSPPEEVTAAIDVALEVGYRHIDTAFMYQNEAAIGKTLKKWFDSGKLKREDVFIVTKLPPIGNRAESVEKFLTKSLEALQLDYVDLYLIHLPVGFQYKGDDNLWPRGEAGEFLIDTSTDLISLWKAMEAQVDAGRTRSVGLSNFNSRQIARIVKSARIRPANLQVELNVYFQQRELVAFCRALDITVCAYAPIGSPGLANVIKARGAEVPESAKFDPLTDPVVLKIAEHHKKTPAQVLLRHCMQRDIVVIPKSTNAGRIKENFQVFDFELSKAEVDELDSLDKRAAGRRFRMDQYKGLREHPEHPYDEPY
notes: full-length ORF of 334 residues, N-terminal 6xHis tag (pET-28a, NheI/BamHI), E. coli ArcticExpress (DE3); Ni and size exclusion purified
B1 showed a Km (purified protein) of 150 µM and a kcat (purified protein) of 7.5 s⁻¹.
